Legend:
[1] = test system: P. granulosum; assay: Agar dilution MIC assay, panel of propionibacterium strains; format: cell-based, Propionibacterium granulosum; conditions: resistance MLSK
Description: This is a standard international method for quantitatively assessing the antimicrobial activity of a compound in a solid medium. The test compound was prepared to 40× the highest concentration required (eg 10 mg/ml for a final concentration of […]) and a series of doubling dilutions were performed in a suitable solvent. A set amount of these antimicrobial stock solutions was then added to molten agar medium (ca 55° C.), mixed thoroughly, poured into sterile Petri dishes and allowed to cool/set. The culture medium was as described above.
A Multipoint™ Inoculator (AQS Manufacturing Ltd, UK) was used to inoculate the plates by spotting the inocula onto the surface of the agar, delivering approximately 1 to 2 μl per spot (yielding 10^5 CFU (colony forming units) per spot).
The plate(s) were then incubated under the conditions described above, following which they were examined visually for signs of bacterial growth. The MIC value was ascertained when there was a marked reduction in, or total loss of, growth on the test plate at the lowest concentration as compared to that of the growth on the control plate.
The assays were conducted in triplicate and included a positive control (culture medium, diluting solvent and inoculum).
The activity (MIC by agar dilution) of copper usnate was determined against a panel of different propionibacterium strains. […]

[2] = test system: S. epidermidis NCTC 11047; assay: Disc diffusion assay (DDA); format: cell-based, Staphylococcus epidermidis; conditions: 200 μg per disc; Mueller-Hinton agar pH 7.0; overnight at 37° C. in air
Excerpt: (§1) (a) staphylococci. The Staphylococcus aureus strain used was ATCC 29213. S. aureus and other staphylococci are common causes of a wide range of skin, skin structure and wound infections; S. aureus is also known to exacerbate eczema. The ATCC 29213 strain is known to be susceptible to beta-lactam antibiotics such as methicillin. The Staphylococcus epidermidis strain used was NCTC 11047. Staph. epidermidis forms part of the resident flora of skin and is an opportunistic pathogen which can cause biofilms to grow for instance on plastic surgical implants such as catheters. Unless otherwise stated, the staphylococci were cultured and maintained on Mueller-Hinton Medium (agar and broth) at pH 7.2; cultures were incubated aerobically at 37° C. for 19-20 hours, at pH 7 (±0.2). (b) C. striatum NCTC 764. […]
A sterile paper disc was impregnated with a sample of the test compound in a suitable solvent and 30 minutes allowed for the solvents to evaporate (where possible). […] The diameter of this zone of “inhibition” was measured using a ProtoCOL™ automated zone sizer (Synbiosis, Cambridge, UK). […]
(§2) Example 8 was repeated (except for the supplemented DDA assays), using S. aureus ATCC 29213 as the test organism. […] In the DDA assays, 200 μg is of each compound was loaded onto each disc: the culture medium was Mueller-Hinton agar at pH 7.0, and results were recorded after overnight incubation at 37° C. in air. […]

[3] = test system: S. epidermidis NCTC 11047; assay: MBC assay; format: cell-based, Staphylococcus epidermidis; conditions: Mueller-Hinton broth pH 7.0
Excerpt: as §1, with “764. Corynebacterium striatum is closely related to organisms (aerobic diphtheroids of the genus Corynebacterium) that cause body odour. It was cultured and maintained on Mueller-Hinton medium (agar and broth). All cultures were incubated aerobically at 37° C. for 72 hours, at pH 7 (±0.2).” for “764.”
as §2

## CC(=O)c1c([O-])c(C)c([O-])c2c1OC1=CC(=O)C(C(C)=O)C(=O)C12C.[Cu+2] (stereo not shown) [Copper usnate, copper (II) usnate]
[1]; P. granulosum PRP-005, Erm X
  MIC: 1.95 mg/L
[1]; P. granulosum PRP-019, Erm X
  MIC: 1.95 mg/L
[2]
  DDA zone diameter: 25.7 ± 0.6 mm
[3]
  MBC: 62.5 mg/L

— patent US20120270935A1, “FORMULATIONS” (priority 2009, published 2012)
